# Experimental data: US20230145822A1 (priority 2020, published 2023)
# “Also recorded” adds a separate entry of the source. Read-outs that look alike come from different tables or passages of the source.
# Key:
# [1] = biological target: human PrP^C (Homo sapiens, UniProt P04156); assay type: cell-based
# [2] = tested on: mouse PrP^C mRNA; assay type: cell-based
# [3] = tested on: HEK293 cells
# [4] = tested on: ZR-75 cells; conditions: human
# [5] = tested on: NEGR-1; assay type: cell-based
# [6] = tested on: PrP^C mRNA; assay type: cell-based, human
# [7] = tested on: PrP^C mRNA; assay type: cell-based, mouse
# [8] = biological target: PrP^C (Mus musculus, UniProt P04925); assay type: cell-based; conditions: 1-10 μM, 24 h, PNGase-F
# Chain of PrP^C (P04925 23-254 limits assumed): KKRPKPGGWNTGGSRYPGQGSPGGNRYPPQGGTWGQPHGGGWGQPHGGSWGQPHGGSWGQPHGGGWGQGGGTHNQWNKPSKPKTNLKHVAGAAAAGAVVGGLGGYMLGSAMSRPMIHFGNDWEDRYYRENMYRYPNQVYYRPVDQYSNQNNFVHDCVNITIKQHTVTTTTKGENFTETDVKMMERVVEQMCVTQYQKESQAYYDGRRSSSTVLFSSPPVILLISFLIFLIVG
# [9] = tested on: EGFP-PrP^C; assay type: cell-based, mouse; conditions: 24 h, 3-10 μM
# [10] = tested on: LC3II; assay type: cell-based
# [11] = tested on: RML prion strain; assay type: cell-based, mouse
compound,measurement,setting,value
Cc1ccccc1Cn1c(=O)c2c(nc3n(-c4ccccc4O)c(C)c(C)n23)n(C)c1=O [SM940],concentration from which human PrP^C expression is suppressed,[1],≥ 3 µM
same,PrP^C mRNA levels,[2],do not suppress mouse PrP^C mRNA levels
same,concentration inducing cell death,[3]; human,> 30 µM
same,concentration inducing cell death,[4],> 30 µM
COc1cc(C2CC(=O)Nc3c2cnn3-c2ccc(Br)cc2)ccc1O (stereo not shown) [SM875],effect on control protein NEGR-1,[5],did not produce any effect
same,PrP^C mRNA levels,[2],does not decrease PrP^C mRNA levels
same,PrP^C mRNA levels,[6],does not decrease PrP^C mRNA levels
same,PrP^C mRNA levels,[7],does not decrease PrP^C mRNA levels
same,alpha-cleavage (C1 PrP),[8],dose-dependent increase of Cl PrP
same,cell surface EGFP-PrP^C,[9],drastic reduction
same,LC3II levels,[10],large increase; also recorded: much smaller increase
same,cytotoxicity,[3],evident cytotoxicity
same,"estimated median lethal dose, LD50",[3]; human,4.6 µM
"CO/C1=C\C(C)=C\[C@@H](C)[C@@H](O)[C@@H](C)C/C(C)=C/C=C/[C@H](OC)[C@@H]([C@@H](C)[C@@H](O)[C@H](C)[C@@]2(O)C[C@@H](O)[C@H](C)[C@@H](C(C)C)O2)OC1=O [BAF, Bafilomycin A1, reference compound]",effect on SM875-induced decrease of PrP^C levels,[1],almost completely prevents
COc1cc2c(cc1OC)CN(C(=O)c1cccc(Cl)c1)CC2 [SM950],concentration from which human PrP^C expression is suppressed,[1],≥ 1 µM
same,PrP^C mRNA levels,[2],do not suppress mouse PrP^C mRNA levels
same,concentration inducing cell death,[3]; human,≥ 3 µM
same,concentration inducing cell death,[4],30 µM
"OC[C@H]1O[C@H](O[C@H]2O[C@H](CO)[C@@H](O)[C@H](O)[C@H]2O)[C@H](O)[C@@H](O)[C@@H]1O [trehalose, reference compound]",LC3II levels,[10],increased LC3-II levels
Fe(III)-TMPyP,prion levels (PK-resistant PrP),[11],inhibits prion levels
COc1cc(C2CC(=O)Nc3c2cnn3-c2cccc(F)c2)ccc1O (stereo not shown) [SM898],"estimated median lethal dose, LD50",[3]; human,37.9 µM
same,reduction of cytotoxicity versus SM875,[3]; human,~3 times
COc1cc(C2CC(=O)Nc3c2cnn3-c2ccc(I)cc2)ccc1O (stereo not shown) [GC6],IC25,[1],sub-micromolar
same,IC50,[1],sub-micromolar
same,effect on PrP^C expression,[1],even more prominent activity in ZR-75 cells than in HEK293 cells
OCC(O)Cn1c2ccc(Br)cc2c2cc(Br)ccc21 (stereo not shown) [SM930],concentration from which human PrP^C expression is suppressed,[1],≥ 3 µM
same,concentration inducing cell death,[3]; human,30 µM
same,concentration inducing cell death,[4],30 µM
